Laboratory results taken from patent US12195427B2, “MASP-2 inhibitors and methods of use” (priority 2018, dated 2025).

Biological target: MASP-2 CCP2-SP (Homo sapiens (Human), UniProt O00187)
Test: MASP-2 co-crystallization, X-ray crystallography and structure analysis (H-bonds, van der Waals contacts);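 as to Ligand-pharmacophore element distance, pharmacophore element C2: distance from averaged pharmacophore element to bound ligand; missing value means element absent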;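 as to Ligand-pharmacophore element distance, pharmacophore element C3: distance from averaged pharmacophore element to bound ligand; missing value means element absent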;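 as to Ligand-pharmacophore element distance, pharmacophore element C4: distance from averaged pharmacophore element to bound ligand; missing value means element absent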;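 as to Ligand-pharmacophore element distance, pharmacophore element C5: distance from averaged pharmacophore element to bound ligand; missing value means element absent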
Parameters: van der Waals contact distance, MASP-2 HIS 483 atom CD2 / van der Waals contact distance, MASP-2 HIS 483 atom NE2 / van der Waals contact distance, SER 654 C to compound atom / van der Waals contact distance, SER 654 O to compound atom / van der Waals contact distance, TRP 655 C to compound atom / van der Waals contact distance, MASP-2 GLY 528 atom CA / van der Waals contact distance TRP 655 atom CZ3 / van der Waals contact distance TRP 655 atom N / van der Waals contact distance TRP 655 atom CE3 / van der Waals contact distance GLY 656 atom C / van der Waals contact distance GLY 656 atom CA / van der Waals contact distance GLY 656 atom O / van der Waals contact distance, MASP-2 TYR 607 atom CD1 / van der Waals contact distance, MASP-2 PRO 606 atom O / d(C3,CA1) / d(CA1,N1)2 / d(H4,O1) / d(H4,O2) / d(O1,O2) / d(CA1,O2) / d(CA6,O1) / d(CA6,O2) / d(CA1,C5) / d(O2,H3) / d(N2,C2) / d(CA5,N2) / d(N2,C4) / d(N2,C6) / d(N2,CA3) / d(N2,O3) / d(O4,H2): unit not given beside the values
Settings: for Ligand-pharmacophore element distance, pharmacophore element C2 / Ligand-pharmacophore element distance, pharmacophore element C3 / Ligand-pharmacophore element distance, pharmacophore element C4 / Ligand-pharmacophore element distance, pharmacophore element C5 / Ligand-pharmacophore element distance, pharmacophore element C6 / Ligand-pharmacophore element distance, pharmacophore element C7 / Ligand-pharmacophore element distance, pharmacophore element CA1 / Ligand-pharmacophore element distance, pharmacophore element CA2 / Ligand-pharmacophore element distance, pharmacophore element CA3 / Ligand-pharmacophore element distance, pharmacophore element CA4 / Ligand-pharmacophore element distance, pharmacophore element CA5 / Ligand-pharmacophore element distance, pharmacophore element CA6: Table A4-1
Text: This example illustrates the preparation of recombinant MASP-2 protein, based on UniProt O00187, human mannan-binding lectin serine protease 2. Expression constructs for human MASP-2 CCP2-SP and CCP2-SP-6HIS were generated for recombinant expression in E. coli cells.
Typically, crystallization hits were obtained by screening against […] 96-well crystallization reagent kits (GRAS6, GRAS2, Hampton Research; MORPHEUS, Molecular Dimensions; Wizard 1&2 Cryo, Rigaku Reagents) and crystal growth was inspected by optical microscopy. Crystals were used directly or further optimized for X-ray diffraction. Crystals were captured with cryogenic loops and dipped into liquid nitrogen directly or cryoprotected with a 20% glycerol in crystallization formulation before flash-cooling in liquid nitrogen.
Thereafter crystals are transferred once or twice for soaking within the crystallization solution containing the MASP-2 inhibitor.
Crystals were diffracted with synchrotron X-rays of […] and X-ray diffraction datasets were collected at beamlines SSRL BL9-2, BL14-1, BL12-2 as well as ALS sector 5 using Dectris Pilatus and Eiger detectors. Structures were determined by molecular replacement using portions of the structure 1Q3X as search models and partially refined with Buster 2.10.2 or Refmac 5.8. […] When multiple ligand poses were observed, for instance arising from multiple molecules in the asymmetric unit or refined dual poses within the same molecule, only one pose was selected and analyzed.
LigPlot+ calls these ‘nonbonded contacts’ or ‘hydrophobic contacts’. Despite the name, there are atom pairings that include possible H-bonds. Thus, in some instances, the Table A2 also contains H-bond interactions.

[1] = Table A5-1 pharmacophore: distance between elements, S2/S1 region
[2] = Table A5-2 pharmacophore distance, S3/S4 region
[3] = Table A7-1, between pharmacophore elements of the bound compound
[4] = Table A7-2, between pharmacophore elements of the bound compound
[5] = Table A8-6, nearest protein atom in cell to the left

Sequence of MASP-2 CCP2-SP (O00187 445-686): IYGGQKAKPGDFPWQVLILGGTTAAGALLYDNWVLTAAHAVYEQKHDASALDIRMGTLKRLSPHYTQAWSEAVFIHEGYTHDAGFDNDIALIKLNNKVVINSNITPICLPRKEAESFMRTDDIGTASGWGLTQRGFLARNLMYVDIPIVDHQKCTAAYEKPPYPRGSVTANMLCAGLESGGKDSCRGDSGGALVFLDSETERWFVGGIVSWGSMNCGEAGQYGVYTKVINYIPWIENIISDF
Sequence of MASP-2 CCP2-SP (O00187 364-432 partner): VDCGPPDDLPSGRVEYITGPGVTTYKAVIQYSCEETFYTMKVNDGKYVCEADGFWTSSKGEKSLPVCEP

| Structure (SMILES) | Ligand-pharmacophore element distance, pharmacophore element C2 | Ligand-pharmacophore element distance, pharmacophore element C3 | Ligand-pharmacophore element distance, pharmacophore element C4 | Ligand-pharmacophore element distance, pharmacophore element C5 | Ligand-pharmacophore element distance, pharmacophore element C6 | Ligand-pharmacophore element distance, pharmacophore element C7 | Ligand-pharmacophore element distance, pharmacophore element CA1 | Ligand-pharmacophore element distance, pharmacophore element CA2 | Ligand-pharmacophore element distance, pharmacophore element CA3 | Ligand-pharmacophore element distance, pharmacophore element CA4 | Ligand-pharmacophore element distance, pharmacophore element CA5 | Ligand-pharmacophore element distance, pharmacophore element CA6 | d(CA1,O1) [1] | d(CA1,O2) [1] | d(H4,O1) [1] | d(H4,O2) [1] | d(O1,O2) [1] | d(O2,H3) [2] | d(O2,N2) [2] | a(CA1, O1, O2) (Table A6-1 pharmacophore angle) | also measured |
| --- | --- | --- | --- | --- | --- | --- | --- | --- | --- | --- | --- | --- | --- | --- | --- | --- | --- | --- | --- | --- | --- |
| C[C@H](NC(=O)[C@H](N)C1Cc2ccccc2C1)C(=O)NCc1ccc2c(N)nccc2c1.Cl.Cl [1088_A] | 1.75 | 0 | 0 | 0 | 0 | 0 | 0.4 | 0 | 0 | 0 | 0.39 | 0 | 5.33 | 4.61 | 6.97 | 5.89 | 3.49 | 3.72 | 2.73 | 99.08 | d(CA5,N2) [2]: 5.30; d(N2,C2) [2]: 3.41; a(O1, O2, H4) (Table A6-1 pharmacophore angle): 149.95; a(O1, O2, H3) (Table A6-2 pharmacophore angle): 144.04; a(O1, O2, N2) (Table A6-2 pharmacophore angle): 141.09; a(O2, N2, C2) (Table A6-2 pharmacophore angle): 141.58; Pharmacophore torsion angle a(H4, O1, O2, H3) [3]: 49.33; Pharmacophore torsion angle a(H4, O1, O2, N2) [3]: 120.82; Pharmacophore torsion angle a(O1, H4, O2, CA1) [3]: −54.60; Pharmacophore torsion angle a(O1, O2, N2, C2) [3]: 103.40; Pharmacophore torsion angle a(O1, O2, N2, CA5) [4]: 116.27; Pharmacophore protein distance to MET_658 (first MET_658 column) (Table A8-6, 6th residue column, nearest protein atom in cell to the left): 3.04; Pharmacophore protein distance to MET_658 (second MET_658 column) (Table A8-6, 9th residue column, nearest protein atom in cell to the left): 3.12; Pharmacophore protein distance to GLY_528 [5]: 3.66; Pharmacophore protein distance to PHE_529 [5]: 2.75; Pharmacophore protein distance to PRO_608 [5]: 3.74; Pharmacophore protein distance to SER_611 [5]: 2.71; Pharmacophore protein distance to TRP_655 (Table A8-6, pharmacophore elements C6, CA3, O3, H1, nearest protein atom in cell to the left): 3.75 |
| Cc1nc(N)ccc1CNC(=O)[C@H](C)NC(=O)[C@H]1C[C@H](Cc2cccc(Cl)c2)CN1.Cl.Cl [1328_4] | 0 | 0.18 | 1.86 | 0 | 0 | 0 | 0.5 | 0.3 | 0 | 0 | 0 | 0 | 5.05 | 3.83 | 4.21 | 2.53 | 3.71 | 4.71 | 2.79 | 96.00 | d(C3,CA1) [1]: 2.85; d(CA1,N1)2 [1]: 1.37; d(N2,C4) [2]: 7.92; d(N2,C4)4 [2]: 7.92; d(N2,CA2) [2]: 6.17; a(C3, CA1, O1) (Table A6-1 pharmacophore angle): 151.05; a(O1, O2, H4) (Table A6-1 pharmacophore angle): 119.12; a(N1, CA1, O1) b) (Table A6-1 pharmacophore angle, Methyl-amino-pyridine compounds): 173.49; a(O1, O2, H3) (Table A6-2 pharmacophore angle): 150.66; a(O1, O2, N2) (Table A6-2 pharmacophore angle): 142.82; a(O2, N2, C4) (Table A6-2 pharmacophore angle): 160.57; a(O2, N2, C4) 2 (Table A6-2 pharmacophore angle): 109.36; a(O2, N2, CA2) (Table A6-2 pharmacophore angle): 156.25; Pharmacophore torsion angle a(C3, CA1, O1, H4) [3]: 66.00; Pharmacophore torsion angle a(H4, O1, O2, H3) [3]: 44.95; Pharmacophore torsion angle a(H4, O1, O2, N2) [3]: 135.08; Pharmacophore torsion angle a(N1, CA1, O1, H4) [3]: 58.16; Pharmacophore torsion angle a(O1, H4, O2, CA1) [3]: −91.48; Pharmacophore torsion angle a(O1, O2, N2, CA2) [4]: 128.70 |
| C[C@H](NC(=O)[C@H]1C[C@@H](c2ccccc2)CCN1)C(=O)NCc1cc(Cl)ccc1O.Cl [1078_5] | 0.71 | 0 | 0 | 0.42 | 0 | 0 | 1.76 | 0.6 | 0 | 0 | 0 | 0 | 4.48 | 4.88 | 2.40 | 2.46 | 3.41 | 3.24 | 2.95 | 117.54 | d(CA1,C5) [1]: 3.12; d(CA1,O4) [1]: 2.72; d(O4,H2) [1]: 0.98; d(N2,C2) [2]: 1.45; d(N2,CA2) [2]: 5.65; a(C5, CA1, O1) (Table A6-1 pharmacophore angle): 164.79; a(CA1, O4, H2) (Table A6-1 pharmacophore angle): 131.80; a(O1, CA1, O4) (Table A6-1 pharmacophore angle): 55.67; a(O1, O2, H4) (Table A6-1 pharmacophore angle): 90.82; a(O1, O2, H3) (Table A6-2 pharmacophore angle): 138.56; a(O1, O2, N2) (Table A6-2 pharmacophore angle): 141.15; a(O2, N2, C2) (Table A6-2 pharmacophore angle): 114.27; a(O2, N2, CA2) (Table A6-2 pharmacophore angle): 151.79; Pharmacophore torsion angle a(C5, CA1, O1, H4) [3]: 21.83; Pharmacophore torsion angle a(H4, O1, O2, H3) [3]: −119.72; Pharmacophore torsion angle a(H4, O1, O2, N2) [3]: −115.76; Pharmacophore torsion angle a(O1, H4, O2, CA1) [3]: −52.04; Pharmacophore torsion angle a(O1, O2, N2, C2) [3]: 148.01; Pharmacophore torsion angle a(O1, O2, N2, CA2) [4]: 149.21 |
